In US10568876B2, “Tetrahydroisoquinoline derivatives useful as inhibitors of diacylglyceride O-acyltransferase 2” (Merck Sharp & Dohme Corp., priority 2014, dated 2020):

Target: hDGAT2 (Homo sapiens (Human), UniProt Q96PD7)
Assay: DGAT2 Enzymatic Activity Assay
Format: biochemical
Details: hDGAT2 Sf-9 membrane prep; 25 μM diolein, 10 μM oleoyl-CoA; triolein product by LC/MS/MS; read-out: IC50 values for inhibition of DGAT2
Procedure, shortened: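 Membranes from Sf-9 cells expressing untagged hDGAT2 (10 ng/μL) incubated at room temperature with 25 μM diolein and 10 μM oleoyl-CoA in 100 mM Tris pH 7.0, 20 mM MgCl2, 5% ethanol. Triolein product quantified by LC/MS/MS against spiked internal standard; IC50 from 4-parameter sigmoidal fit.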

Chain of hDGAT2 (Q96PD7 whole entry): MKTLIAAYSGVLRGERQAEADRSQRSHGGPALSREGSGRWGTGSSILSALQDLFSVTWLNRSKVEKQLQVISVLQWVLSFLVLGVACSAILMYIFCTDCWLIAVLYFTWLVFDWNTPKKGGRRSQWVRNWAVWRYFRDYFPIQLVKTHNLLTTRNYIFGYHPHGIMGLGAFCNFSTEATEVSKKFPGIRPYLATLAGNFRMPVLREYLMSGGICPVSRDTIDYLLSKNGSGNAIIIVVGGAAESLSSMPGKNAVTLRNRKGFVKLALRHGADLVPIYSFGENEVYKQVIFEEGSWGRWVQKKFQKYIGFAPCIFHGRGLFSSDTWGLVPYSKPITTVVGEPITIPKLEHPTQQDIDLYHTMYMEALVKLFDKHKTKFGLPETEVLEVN

Compound | IC50 [nM]
Cc1noc([C@@H]2C[C@H]2C(=O)NCc2ccc(-c3cccc(OC(F)(F)F)c3)c3c2CN(Cc2noc(C4CC4)n2)CC3)n1 (relative stereo) [Example 101, (trans)-N-((2-((5-cyclopropyl-1,2,4-oxadiazol-3-yl)methyl)-5-(3-(trifluoromethoxy)phenyl)-1,2,3,4-tetrahydroisoquinolin-8-yl)methyl)-2-(3-methyl-1,2,4-oxadiazol-5-yl)cyclopropanecarboxamide] | 4500
Cc1noc([C@@H]2C[C@H]2C(=O)NCc2ccc(-c3cccc(OC(F)(F)F)c3)c3c2CN(CC(=O)N2COCC2(C)C)CC3)n1 (relative stereo) [Example 103, (trans)-N-((2-(2-(4,4-dimethyloxazolidin-3-yl)-2-oxoethyl)-5-(3-(trifluoromethoxy)phenyl)-1,2,3,4-tetrahydroisoquinolin-8-yl)methyl)-2-(3-methyl-1,2,4-oxadiazol-5-yl)cyclopropanecarboxamide] | 1760
Cc1noc([C@@H]2C[C@H]2C(=O)NCc2ccc(-c3cccc(OC(F)(F)F)c3)c3c2CN(Cc2noc(C(C)C)n2)CC3)n1 (relative stereo) [Example 104, (trans)-N-((2-((5-isopropyl-1,2,4-oxadiazol-3-yl)methyl)-5-(3-(trifluoromethoxy)phenyl)-1,2,3,4-tetrahydroisoquinolin-8-yl)methyl)-2-(3-methyl-1,2,4-oxadiazol-5-yl)cyclopropanecarboxamide] | 5090
Cc1noc([C@@H]2C[C@H]2C(=O)NCc2ccc(-c3cccc(OC(F)(F)F)c3)c3c2CN(Cc2ccncn2)CC3)n1 (relative stereo) [Example 105, (trans)-2-(3-methyl-1,2,4-oxadiazol-5-yl)-N-((2-(pyrimidin-4-ylmethyl)-5-(3-(trifluoromethoxy)phenyl)-1,2,3,4-tetrahydroisoquinolin-8-yl)methyl)cyclopropanecarboxamide] | 2610
Cc1noc([C@@H]2C[C@H]2C(=O)NCc2ccc(-c3cccc(OC(F)(F)F)c3)c3c2CN(Cc2scnc2C)CC3)n1 (relative stereo) [Example 106, (trans)-2-(3-methyl-1,2,4-oxadiazol-5-yl)-N-((2-((4-methylthiazol-5-yl)methyl)-5-(3-(trifluoromethoxy)phenyl)-1,2,3,4-tetrahydroisoquinolin-8-yl)methyl)cyclopropanecarboxamide] | 1840
Cc1noc([C@@H]2C[C@H]2C(=O)NCc2ccc(-c3cccc(OC(F)(F)F)c3)c3c2CN(Cc2cnccn2)CC3)n1 (relative stereo) [Example 107, (trans)-2-(3-methyl-1,2,4-oxadiazol-5-yl)-N-((2-(pyrazin-2-ylmethyl)-5-(3-(trifluoromethoxy)phenyl)-1,2,3,4-tetrahydroisoquinolin-8-yl)methyl)cyclopropanecarboxamide] | 4770
COc1cccc(-c2ccc(CNC(=O)[C@H]3C[C@@H]3c3ccccc3)c3c2CCN(c2nccc(C(F)(F)F)n2)C3)c1 (relative stereo) [Example 109, (trans)-N-((5-(3-methoxyphenyl)-2-(4-(trifluoromethyl)pyrimidin-2-yl)-1,2,3,4-tetrahydroisoquinolin-8-yl)methyl)-2-phenylcyclopropanecarboxamide] | 4040
COc1cccc(-c2ccc(CNC(=O)[C@@H]3C[C@H]3c3ccccc3)c3c2CCN(C(=O)c2cc(F)cc(F)c2)C3)c1 (relative stereo) [Example 111, (trans)-N-((2-(3,5-difluorobenzoyl)-5-(3-methoxyphenyl)-1,2,3,4-tetrahydroisoquinolin-8-yl)methyl)-2-phenylcyclopropanecarboxamide] | 971
COc1cccc(-c2ccc(CNC(=O)[C@@H]3C[C@H]3c3ccccc3)c3c2CCN(C(=O)C(C)(C)C)C3)c1 (relative stereo) [Example 113, (trans)-N-((5-(3-methoxyphenyl)-2-pivaloyl-1,2,3,4-tetrahydroisoquinolin-8-yl)methyl)-2-phenylcyclopropanecarboxamide] | 887
COc1cccc(-c2ccc(CNC(=O)[C@@H]3C[C@H]3c3ccccc3)c3c2CCN(C(=O)C(C)(C)O)C3)c1 (relative stereo) [Example 117, (trans)-N-((2-(2-hydroxy-2-methylpropanoyl)-5-(3-methoxyphenyl)-1,2,3,4-tetrahydroisoquinolin-8-yl)methyl)-2-phenylcyclopropanecarboxamide] | 831
COc1cccc(-c2ccc(CNC(=O)[C@@H]3C[C@H]3c3ccccc3)c3c2CCN(C(=O)C(O)C(F)(F)F)C3)c1 (relative stereo) [Example 119, (trans)-N-((5-(3-methoxyphenyl)-2-(3,3,3-trifluoro-2-hydroxypropanoyl)-1,2,3,4-tetrahydroisoquinolin-8-yl)methyl)-2-phenylcyclopropanecarboxamide] | 1540
COC[C@H]1CCC[C@H]1NC(=O)CN1CCc2c(-c3cccc(OC(F)(F)F)c3)ccc(CNC(=O)C3CC3c3nc(C)no3)c2C1 (stereo in doubt) [Example 86, N-((2-(2-(((trans)-2-(methoxymethyl)cyclopentyl)amino)-2-oxoethyl)-5-(3-(trifluoromethoxy)phenyl)-1,2,3,4-tetrahydroisoquinolin-8-yl)methyl)-2-(3-methyl-1,2,4-oxadiazol-5-yl)cyclopropanecarboxamide] | 2290
Cc1noc([C@H]2C[C@@H]2C(=O)NCc2ccc(-c3cccc(C(F)(F)F)c3)c3c2CN(C(=O)C(C)(C)O)CC3)n1 (stereo in doubt) [Example 116, (trans)-N-((2-(2-hydroxy-2-methylpropanoyl)-5-(3-(trifluoromethyl)phenyl)-1,2,3,4-tetrahydroisoquinolin-8-yl)methyl)-2-(3-methyl-1,2,4-oxadiazol-5-yl)cyclopropanecarboxamide] | 1580
Cc1noc([C@@H]2C[C@H]2C(=O)NCc2ccc(-c3cccc(C(F)(F)F)c3)c3c2CN(C(=O)C(C)(C)O)CC3)n1 (stereo in doubt) [Example 120, (trans)-N-((2-(2-hydroxy-2-methylpropanoyl)-5-(3-(trifluoromethyl)phenyl)-1,2,3,4-tetrahydroisoquinolin-8-yl)methyl)-2-(3-methyl-1,2,4-oxadiazol-5-yl)cyclopropanecarboxamide] | 1580
Cc1noc(C2CC2C(=O)NCc2ccc(-c3cccc(OC(F)(F)F)c3)c3c2CN(C(=O)NC(C)(C)C)CC3)n1 (stereo not drawn) [Example 1, N-(tert-butyl)-8-(((trans)-2-(3-methyl-1,2,4-oxadiazol-5-yl)cyclopropanecarboxamide)methyl)-5-(3-(trifluoromethoxy)phenyl)-3,4-dihydroisoquinoline-2(1H)-carboxamide] | 3.6
CC(C)(C)NC(=O)N1CCc2c(-c3cccc(OC(F)(F)F)c3)ccc(CNC(=O)C3CC3c3cccnc3)c2C1 (stereo not drawn) [Example 4, N-(tert-butyl)-8-((2-(pyridin-3-yl)cyclopropanecarboxamido)methyl)-5-(3-(trifluoromethoxy)phenyl)-3,4-dihydroisoquinoline-2(1H)-carboxamide] | 11.7
COC(=O)c1cccc(-c2ccc(CNC(=O)C3CC3c3nc(C)no3)c3c2CCN(C(=O)NC(C)(C)C)C3)c1 (stereo not drawn) [Example 7, methyl 3-(2-(tert-butylcarbamoyl)-8-((2-(3-methyl-1,2,4-oxadiazol-5-yl)cyclopropanecarboxamido)methyl)-1,2,3,4-tetrahydroisoquinolin-5-yl)benzoate] | 15.5
COc1cccc(-c2ccc(CNC(=O)C3CC3c3cccnc3)c3c2CCN(C(=O)NC(C)(C)C)C3)c1 (stereo not drawn) [Example 13, N-(tert-butyl)-5-(3-methoxyphenyl)-8-((2-(pyridin-3-yl)cyclopropanecarboxamido)methyl)-3,4-dihydroisoquinoline-2(1H)-carboxamide] | 6.1
COC(=O)c1cccc(-c2ccc(CNC(=O)C3CC34CCCCC4)c3c2CCN(C(=O)NC(C)(C)C)C3)c1 (stereo not drawn) [Example 17, methyl 3-(2-(tert-butylcarbamoyl)-8-((spiro[2.5]octane-1-carboxamido)methyl)-1,2,3,4-tetrahydroisoquinolin-5-yl)benzoate] | 2.2
COC(=O)c1cccc(-c2ccc(CNC(=O)C3CC3c3nc(C)no3)c3c2CCN(C(=O)NC(C)(C)C)C3)c1 (stereo not drawn) [Example 21, methyl 3-(2-(tert-butylcarbamoyl)-8-((2-(3-methyl-1,2,4-oxadiazol-5-yl)cyclopropanecarboxamido)methyl)-1,2,3,4-tetrahydroisoquinolin-5-yl)benzoate] | 15.5
CC(C)(C)NC(=O)N1CCc2c(-c3cncc(CO)c3)ccc(CNC(=O)C3C[C@H]3c3ccccc3)c2C1 (stereo partly drawn) [Example 28, N-(tert-butyl)-5-(5-(hydroxymethyl)pyridin-3-yl)-8-(((trans)-2-phenylcyclopropanrcarboxamido)methyl)-3,4-dihydroisoquinoline-2(1H)-carboxamide] | 992
CC(C)(C)NC(=O)N1CCc2c(-c3cccc(-c4ncon4)c3)ccc(CNC(=O)C3C[C@H]3c3ccccc3)c2C1 (stereo partly drawn) [Example 51, 5-(3-(1,2,4-oxadiazol-3-yl)phenyl)-N-(tert-butyI)-8-(((trans)-2-phenylcyclopropanecarboxamido)methyl)-3,4-dihydroisoquinoline-2(1H)-carboxamide] | 5.78
COC(=O)c1cccc(-c2ccc(CNC(=O)C3CC3c3ccccc3)c3c2CCN(C(=O)NC2CC(F)(F)C2)C3)c1 (stereo not drawn) [Example 56, methyl 3-(2-((3,3-difluorocyclobutyl)carbamoyl)-8-((2-phenylcyclopropanecarboxamido)methyl)-1,2,3,4-tetrahydroisoquinolin-5-yl) benzoate] | 9.88
COc1cccc(-c2ccc(CNC(=O)C3CC3c3ccccc3)c3c2CCN(C(=O)NC2CC(F)(F)C2)C3)c1 (stereo not drawn) [Example 57, N-(3,3-difluorocyclobutyl)-5-(3-methoxyphenyl)-8-((2-phenylcyclopropanecarboxamido)methyl)-3,4-dihydroisoquinoline-2(1H)-carboxamide] | 87
